The supplement of paper PMC10307832

How the values were obtained:
Experiment in all cases: relative viability (nuclei count vs DMSO), 5 days (fraction); higher = more cells survive
RAF265 + Luminespib = compound: Cn1c(Nc2ccc(C(F)(F)F)cc2)nc2cc(Oc3ccnc(-c4ncc(C(F)(F)F)[nH]4)c3)ccc21 [RAF265] + CCNC(=O)c1noc(-c2cc(C(C)C)c(O)cc2O)c1-c1ccc(CN2CCOCC2)cc1 [Luminespib] (partner 0.01 µM)
In short: (§1)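 Lung cancer cell lines were pin-tool dosed in 1536-well plates on the day after seeding, with either a lone drug or a fixed anchor-drug dose plus five library-drug doses (not always all listed) in √10 steps. Nuclei were counted on 4× images after 5 days. Relative viability is the ratio of treated-well to vehicle-well nuclei counts, with each value a median of duplicate plates.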

RAF265 + Lapatinib = compound: Cn1c(Nc2ccc(C(F)(F)F)cc2)nc2cc(Oc3ccnc(-c4ncc(C(F)(F)F)[nH]4)c3)ccc21 [RAF265] + CS(=O)(=O)CCNCc1ccc(-c2ccc3ncnc(Nc4ccc(OCc5cccc(F)c5)c(Cl)c4)c3c2)o1 [Lapatinib] (partner 2 µM)
In short: as §1

IPA-3 + Dasatinib = compound: C1=CC=C2C(=C1)C=CC(=C2SSC3=C(C=CC4=CC=CC=C43)O)O [IPA-3] + Cc1nc(Nc2ncc(C(=O)Nc3c(C)cccc3Cl)s2)cc(N2CCN(CCO)CC2)n1 [Dasatinib] (partner 0.075 µM)
In short: as §1

Doramapimod + Pictilisib = compound: Cc1ccc(-n2nc(C(C)(C)C)cc2NC(=O)Nc2ccc(OCCN3CCOCC3)c3ccccc23)cc1 [Doramapimod] + CS(=O)(=O)N1CCN(Cc2cc3nc(-c4cccc5[nH]ncc45)nc(N4CCOCC4)c3s2)CC1 [Pictilisib] (partner 1 µM)
In short: as §1

Row | Cell Line | relative viability (RAF265 + Luminespib; first compound 0.01 µM) | relative viability (RAF265 + Luminespib; first compound 0.03162 µM) | relative viability (RAF265 + Luminespib; first compound 0.1 µM) | relative viability (RAF265 + Luminespib; first compound 0.3162 µM) | relative viability (RAF265 + Luminespib; first compound 1 µM) | relative viability (RAF265 + Lapatinib; first compound 0.01 µM) | relative viability (RAF265 + Lapatinib; first compound 0.03162 µM) | relative viability (RAF265 + Lapatinib; first compound 0.1 µM) | relative viability (RAF265 + Lapatinib; first compound 0.3162 µM) | relative viability (RAF265 + Lapatinib; first compound 1 µM) | relative viability (IPA-3 + Dasatinib; first compound 0.2 µM) | relative viability (IPA-3 + Dasatinib; first compound 0.6325 µM) | relative viability (IPA-3 + Dasatinib; first compound 2 µM) | relative viability (IPA-3 + Dasatinib; first compound 6.325 µM) | relative viability (IPA-3 + Dasatinib; first compound 20 µM) | relative viability (Doramapimod + Pictilisib; first compound 0.02 µM) | relative viability (Doramapimod + Pictilisib; first compound 0.06325 µM) | relative viability (Doramapimod + Pictilisib; first compound 0.2 µM) | relative viability (Doramapimod + Pictilisib; first compound 0.6325 µM) | relative viability (Doramapimod + Pictilisib; first compound 2 µM)
1 | NCI-H838 | 0.284 | 0.226 | 0.344 | 0.309 | 0.288 | 1.02 | 0.927 | 0.972 | 0.971 | 0.885 | 0.32 | 0.234 | 0.291 | 0.319 | 0.328 | 0.415 | 0.485 | 0.439 | 0.552 | 0.467
2 | A549 |  |  |  |  |  | 0.906 | 0.853 | 0.987 | 0.465 | 0.463 |  |  |  |  |  | 0.533 | 0.492 | 0.522 | 0.497 | 0.421
3 | NCI-H1623 | 0.608 | 0.48 | 0.63 |  | 0.33 |  |  |  |  |  | 0.509 | 0.579 | 0.561 | 0.546 | 0.617 |  |  |  |  | 
4 | SK-LU-1 | 0.203 | 0.182 | 0.177 | 0.185 | 0.176 | 0.685 | 0.669 | 0.669 | 0.61 | 0.34 | 0.171 | 0.148 | 0.204 | 0.179 | 0.193 | 0.511 | 0.627 | 0.657 | 0.726 | 0.603
5 | NCI-H2085 | 0.493 | 0.403 | 0.492 | 0.428 | 0.427 | 0.777 | 0.709 | 0.806 | 0.843 | 0.717 | 0.224 | 0.256 | 0.267 | 0.23 | 0.266 | 0.438 | 0.424 | 0.431 | 0.45 | 0.381
6 | NCI-H460 | 0.0219 | 0.0359 | 0.0291 | 0.0265 | 0.0248 | 1.01 | 0.934 | 0.853 |  | 0.646 | 0.757 | 0.45 | 0.422 | 0.539 | 0.363 | 0.374 | 0.383 | 0.266 | 0.548 | 0.291
7 | Calu-6 |  |  |  |  |  | 1.01 | 0.875 | 0.877 | 0.485 | 0.388 |  |  |  |  |  | 0.89 | 0.891 | 0.91 | 0.997 | 0.844
8 | RERF-LC-KJ | 1.34 | 1.22 | 1.08 | 0.763 | 0.713 | 0.837 | 0.776 | 0.827 | 0.784 | 0.679 | 0.983 | 0.729 | 0.837 | 0.759 | 0.789 | 0.569 | 0.536 | 0.56 | 0.581 | 0.55
9 | LCLC-103H | 0.798 | 0.804 | 0.789 | 0.739 | 0.39 |  |  |  |  |  | 0.492 | 0.482 | 0.422 | 0.56 | 0.566 | 0.57 | 0.633 | 0.64 | 0.789 | 0.521
10 | NCI-H2342 | 0.713 | 0.68 | 0.685 | 0.577 | 0.519 |  |  |  |  |  | 0.308 | 0.346 | 0.343 | 0.375 | 0.305 |  |  |  |  | 
11 | HCC-44 | 1.17 | 0.986 | 1.06 | 1.05 | 1.05 | 0.994 | 0.895 | 0.993 | 1.04 | 0.968 |  |  |  |  |  | 1.46 | 0.58 | 0.546 | 0.581 | 0.35
12 | NCI-H441 | 0.368 | 0.29 | 0.321 | 0.263 | 0.327 |  |  |  |  |  | 0.796 | 0.295 | 0.486 | 0.502 | 0.438 | 0.451 | 0.323 | 0.417 | 0.44 | 0.394
13 | NCI-H1299 |  |  |  |  |  | 0.926 | 0.918 | 0.955 | 0.69 | 0.742 |  |  |  |  |  | 0.769 | 0.444 | 0.751 | 0.597 | 0.521
14 | HCC-78 |  |  |  |  |  | 0.902 | 0.702 | 1.24 | 0.938 | 0.209 | 0.43 | 0.359 | 0.462 | 0.439 | 0.427 | 0.224 | 0.208 | 0.224 | 0.173 | 0.184
15 | ChaGo-K-1 | 0.722 | 0.666 | 0.575 | 0.545 | 0.396 |  |  |  |  |  | 0.699 | 0.54 | 0.526 | 0.621 | 0.614 | 0.805 | 0.888 | 0.96 |  | 0.688
16 | SW 900 | 0.204 | 0.182 | 0.169 | 0.154 | 0.145 |  |  |  |  |  | 0.74 | 0.703 | 0.667 | 0.781 | 0.543 |  |  |  |  | 
17 | EBC-1 |  |  |  |  |  | 0.209 | 0.218 | 0.232 | 0.284 | 0.247 |  |  |  |  |  | 0.355 | 0.279 | 0.363 | 0.355 | 0.247
18 | IA-LM |  |  |  |  |  | 0.652 | 0.578 | 0.759 | 0.653 | 0.52 |  |  |  |  |  | 0.176 | 0.257 |  | 0.343 | 0.288
19 | NCI-H1703 |  |  |  |  |  | 1.07 | 0.825 | 1.03 | 0.613 | 0.386 |  |  |  |  |  | 0.234 | 0.226 | 0.236 | 0.248 | 0.215
